Results on 27 molecules are retold here after patent US20250092035A1, “ISOCITRATE DEHYDROGENASE 1 INHIBITORS AND METHODS OF USE THEREOF” (THE WISTAR INSTITUTE OF ANATOMY AND BIOLOGY, priority 2022, published 2025).

Series [1] addresses T1, IDH1 (Homo sapiens, UniProt O75874). In words: IC50 dose-response curve fits (Example 1, assay not described). It is filed as biochemical. The conditions noted are these: for pIC50: curve fit; for Bottom / Slope / Top: curve-fit parameter.
Series [2] has as its target T1, IDH1. The experiment in a line: IC50 in two trials and mean (Example 1, assay not described). It is filed as biochemical.
The nature of series [3]: Microsomal stability (mouse liver microsome assay).
In series [4] the test system is MiaPaCa2 xenograft. The method, then:
In vivo studies. […] Mice were maintained under pathogen-free conditions in the animal facility. No additional food or nutrient-contained bedding provided to the animals during these studies. […] Mice with subcutaneous PDX were purchased from The Jackson Laboratory (#TM01212). […] Mice were imaged weekly to monitor tumor progression and tumor volume was assessed for each mouse and plotted longitudinally. […] All experiments with KPC mice were performed under a UK Home Office license and approved by the University of Glasgow Animal Welfare and Ethical Review Board. […] Tamoxifen dissolved in corn oil at 20 mg/ml, and animals received tamoxifen (75 mg/kg, IP administration, once daily) for six consecutive days. For flank xenograft experiments, 1×10^6 cells were suspended in 200 μL of a PBS:matrigel solution (1:1) and injected subcutaneously into the right flank of mice. For orthotopic experiments, 4×10^4 Luciferase-expressing KPC K8484 cells were suspended in 50 μL of a PBS:matrigel solution (1:1) and injected into the pancreas of C57BL/6 mice at 12 weeks of age. Equal number of male and female mice were used. Mice were anesthetized using isoflurane gas. After ensuring appropriate depth of anesthesia, a 0.5 cm left subcostal incision was made to gain access into the peritoneal cavity. The tail of the pancreas was externalized and the mixture was carefully injected into the pancreas. […]

The nature of series [5]: Mouse pharmacokinetics study. The following applies: CD-1, mouse, plasma, ip, 10 mg/kg.
Series [6] concerns the target T1, IDH1. The experiment in a line: Two-step binding kinetics (Example 1, assay not described).
For series [7] the following is noted: reported (ref. 52); cited from earlier work.
Where [8] appears, read: Trial 1, read-out: IC50, Trial 1.
Setting [9] is: Trial 2, read-out: IC50, Trial 2.
Setting [10] is: mean of the trials, read-out: Mean IC50.
Where [11] appears, read: 1st step, read-out: KiAPP (affinity for 1st step).
[12] abbreviates: 2nd step, read-out: KiAPP* (affinity for 2nd step).

pIC50, pKi: −log10 of the molar value. Read-outs that look alike come from different tables or passages of the source.

T1 sequence (O75874 whole entry): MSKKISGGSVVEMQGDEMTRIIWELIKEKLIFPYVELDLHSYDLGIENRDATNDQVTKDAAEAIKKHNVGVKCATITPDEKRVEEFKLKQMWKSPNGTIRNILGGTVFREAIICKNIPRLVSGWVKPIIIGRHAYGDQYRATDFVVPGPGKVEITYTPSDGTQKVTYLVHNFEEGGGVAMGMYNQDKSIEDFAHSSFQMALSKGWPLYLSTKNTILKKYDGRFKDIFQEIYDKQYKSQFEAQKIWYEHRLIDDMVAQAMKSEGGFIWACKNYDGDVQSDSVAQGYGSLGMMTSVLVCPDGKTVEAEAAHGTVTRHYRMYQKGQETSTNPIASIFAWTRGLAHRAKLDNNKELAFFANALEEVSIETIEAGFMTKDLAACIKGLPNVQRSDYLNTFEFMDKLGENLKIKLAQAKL

In series [1], `COc1ccc(NC(=O)c2nn(Cc3ccc(C(F)(F)F)cc3)c3c2CN(C(=O)c2ccc[nH]2)CC3(C)C)cc1` [FSM-2-275] showed a negative-log IC50 (pIC50) of 8.48, a Bottom of 3.6, a Slope of 1.3 and a Top of 99.1.

In the case of `CC1(C)CN(C(=O)c2cccs2)Cc2c(C(=O)Nc3cccc(C(=O)NC4CCCC4)c3)nn(Cc3ccc(F)cc3)c21` [IAP-1-35], the pIC50 in series [2] (setting [8]) is 7.16; in series [2] (setting [9]), 7.15; in series [2] (setting [10]), 7.16.

Consider `CC1(C)CN(C(=O)c2ccc[nH]2)Cc2c(C(=O)Nc3cccc(C(=O)NC4CCCC4)c3)nn(Cc3ccc(F)cc3)c21` [IAP-1-34], for which the pIC50 in series [2] (setting [8]) was 7.06; in series [2] (setting [9]), 7.02; in series [2] (setting [10]), 7.04.

As to `CC1(C)CN(C(=O)c2cccs2)Cc2c(C(=O)Nc3cccc(C(=O)O)c3)nn(Cc3ccc(F)cc3)c21` [FSM-2-98], the pIC50 was 5.20 in series [2] (setting [8]), 5.30 in series [2] (setting [9]) and 5.25 in series [2] (setting [10]).

On to `CC1(C)CN(C(=O)c2ccc[nH]2)Cc2c(C(=O)Nc3ncco3)nn(Cc3ccc(F)cc3)c21` [FSM-2-113], for which the pIC50 in series [2] (setting [8]) was 5.90; in series [2] (setting [9]), 5.98; in series [2] (setting [10]) it was 5.94.

As for `Cc1ncsc1-c1ccc(CNC(=O)[C@@H]2C[C@@H](O)CN2C(=O)C(NC(=O)CCCCCCOc2cccc(NC(=O)c3nn(Cc4ccc(F)cc4)c4c3CN(C(=O)c3ccc[nH]3)CC4(C)C)c2)C(C)(C)C)cc1` (stereo partly shown) [FSM-3-17], in series [3] (liver microsomes), the half-life at 0.5 μM is 19.5 min.

On to `CC1(C)CN(C(=O)c2ccc[nH]2)Cc2c(C(=O)Nc3cccc(C(N)=O)c3)nn(Cc3ccc(F)cc3)c21` [FSM-2-95], for which the figures for the pIC50 in series [2] (setting [8]), in series [2] (setting [9]) and in series [2] (setting [10]) were 6.51, 6.53 and 6.52, respectively.

`CC(O)c1cccc(NC(=O)c2nn(Cc3ccc(F)cc3)c3c2CN(C(=O)c2cccn2C)CC3(C)C)c1` (stereo not shown) [IAP-1-39]: the pIC50 in series [2] (setting [8]) is 7.35; in series [2] (setting [9]) it was 7.33; in series [2] (setting [10]), 7.34.

Consider `CC1(C)CN(C(=O)c2ccc[nH]2)Cc2c(C(=O)Nc3nccs3)nn(Cc3ccc(F)cc3)c21` [FSM-2-115], for which the pIC50 in series [2] (setting [8]), in series [2] (setting [9]) and in series [2] (setting [10]) was less than 5.00 each time.

`CC1(C)CN(C(=O)c2ccc[nH]2)Cc2c(C(=O)Nc3cccc(C(=O)O)c3)nn(Cc3ccc(F)cc3)c21` [FSM-2-97]: the pIC50 in series [2] (setting [8]) is less than 5.00; in series [2] (setting [9]) it was 5.11; in series [2] (setting [10]), 5.11.

Take `CC1(C)CN(C(=O)c2cccs2)Cc2c(C(=O)Nc3nccs3)nn(Cc3ccc(F)cc3)c21` [FSM-2-116]: the pIC50 is less than 5.00 in series [2] (setting [8]), 5.09 in series [2] (setting [9]) and 5.09 in series [2] (setting [10]).

As to `CC1(C)CN(C(=O)c2cn[nH]c2)Cc2c(C(=O)Nc3ccc(F)cc3)nn(Cc3ccc(C(F)(F)F)cc3)c21` [FSM-3-002, N-(4-Fluorophenyl)-7,7-dimethyl-5-(1H-pyrazole-4-carbonyl)-1-(4-(trifluoromethyl)benzyl)-4,5,6,7-tetrahydro-1H-pyrazolo[4,3-c]pyridine-3-carboxamide], in series [4] (75 mg/kg IP once daily), the xenograft growth entry is “marked reduction in MiaPaCa2 xenograft growth”. In series [4] (mouse, in vivo, ip, 75 mg/kg), the tolerability entry is on record as “well-tolerated”. In addition, the Cmax in series [5] is 2320 ng/mL. The same molecule displayed a half-life at 0.5 μM in series [3] (liver microsomes) of 147 min.

As for `CC1(C)CN(C(=O)c2cccs2)Cc2c(C(=O)Nc3ncco3)nn(Cc3ccc(F)cc3)c21` [FSM-2-114], the pIC50 in series [2] (setting [8]) is 5.86; in series [2] (setting [9]), 5.91; in series [2] (setting [10]) it was 5.89.

In series [1], `COc1cccc(NC(=O)c2nn(Cc3ccc(C(F)(F)F)cc3)c3c2CN(C(=O)c2ccc[nH]2)CC3(C)C)c1` [FSM-2-277] showed a pIC50 of 8.54, a Bottom of 11.8, a Slope of 1.0 and a Top of 99.3.

Consider `CC1(C)CN(C(=O)c2cn[nH]c2)Cc2c(C(=O)Nc3cccc(F)c3)nn(Cc3ccc(C(F)(F)F)cc3)c21` [FSM-3-02], for which, in series [1], the pIC50 was 6.95, the Bottom is listed as −0.9, the Slope is 1.0 and the Top amounted to 95.0.

As to `C=CC(=O)Nc1cccc(NC(=O)c2nn(Cc3ccc(C(F)(F)F)cc3)c3c2CN(C(=O)c2cn[nH]c2)CC3(C)C)c1` [FSM-05-157], in series [6], the “k5 (on rate for 2nd step, min−1)” value was 0.306 min⁻¹ and the “k6 (off rate for 2nd step)” value is 0.001 min⁻¹. Also, the pKi in series [6] (setting [11]) was 4.63. The pKi in series [6] (setting [12]) was 7.19.

Turning to `CC1(C)CN(C(=O)c2cccs2)Cc2c(C(=O)Nc3cccc(C(=O)NC4CCCCC4)c3)nn(Cc3ccc(F)cc3)c21` [IAP-1-37], the pIC50 in series [2] (setting [8]) is 7.72; in series [2] (setting [9]) it was 7.74; in series [2] (setting [10]) it was 7.72.

Regarding `CC1(C)CN(C(=O)c2cn[nH]c2)Cc2c(C(=O)Nc3cccc(NC(=O)CCCl)c3)nn(Cc3ccc(C(F)(F)F)cc3)c21` [FSM-05-141], in series [6], the “k5 (on rate for 2nd step, min−1)” value was 0.257 min⁻¹ and the “k6 (off rate for 2nd step)” value worked out at 0.002 min⁻¹. Further, in series [6] (setting [11]), the pKi is 4.90. In series [6] (setting [12]), the pKi is 7.09.

Regarding `Cn1cccc1C(=O)N1Cc2c(C(=O)Nc3ccccc3)nn(Cc3ccc(F)cc3)c2C(C)(C)C1` [VV-1-19], the pIC50 in series [2] (setting [8]), in series [2] (setting [9]) and in series [2] (setting [10]) was 7.14 throughout.

On to `CC1(C)CN(C(=O)c2ccc[nH]2)Cc2c(C(=O)Nc3cccc(C(=O)NC4CC4)c3)nn(Cc3ccc(F)cc3)c21` [IAP-1-23], for which the pIC50 in series [2] (setting [8]) is 5.99; in series [2] (setting [9]), 6.02; in series [2] (setting [10]) it was 6.00.

In the case of `C[C@@H]1CN(C(=O)c2ccc[nH]2)Cc2c(C(=O)Nc3cccc([C@@H](C)O)c3)nn(Cc3ccc(F)cc3)c21` [FSM-206, reference compound], in series [1], the Bottom was −0.8, the Slope is given as 1.0 and the Top is given as 98.0. For the same molecule, the bioavailability entry in series [7] is “poor bioavailability”.

Consider `Cc1ncc2n1-c1ccc(Cl)cc1C(c1ccccc1F)=NC2` [Midazolam, reference compound], for which the half-life at 0.5 μM in series [3] (microsomes) was 1.76 min.

As to `COc1cccc(NC(=O)c2nn(Cc3ccc(C(F)(F)F)cc3)c3c2CN(C(=O)c2cccs2)CC3(C)C)c1` [FSM-2-278], in series [1], the pIC50 is 8.54, the Bottom amounted to 4.6, the Slope stood at 1.0 and the Top is 98.0.

For `COc1ccc(NC(=O)c2nn(Cc3ccc(C(F)(F)F)cc3)c3c2CN(C(=O)c2cccs2)CC3(C)C)cc1` [FSM-2-276], in series [1], the pIC50 is 8.55, the Bottom turned out to be 15.8, the Slope was found to be 1.4 and the Top came out at 98.9.

Regarding `CC1(C)CN(C(=O)c2cccs2)Cc2c(C(=O)Nc3cccc(C(N)=O)c3)nn(Cc3ccc(F)cc3)c21` [FSM-2-96], the pIC50 in series [2] (setting [8]) is 6.58; in series [2] (setting [9]), 6.60; in series [2] (setting [10]), 6.59.

As to `CC(O)c1cccc(NC(=O)c2nn(Cc3ccc(C(F)(F)F)cc3)c3c2CN(C(=O)c2cn[nH]c2)CC3(C)C)c1` (stereo not shown) [FSM-2-302], in series [1], the pIC50 is 7.44, the Bottom was 4.0, the Slope came to 1.0 and the Top is 97.9. In series [3] (liver microsomes), this molecule came in with a half-life at 0.5 μM of 56.6 min.

Take `Cc1c[nH]c(C(=O)N2Cc3c(C(=O)Nc4cccc(C(C)O)c4)nn(Cc4ccc(F)cc4)c3C(C)(C)C2)c1` (stereo not shown) [IAP-1-40]: the pIC50 in series [2] (setting [8]) was 6.28; in series [2] (setting [9]) it was 6.32; in series [2] (setting [10]) it was 6.30.
